Source: PubChem BioAssay AID2151 (NMMLSC, 2009)
The source made the active and inactive calls. The rule behind the calls is not given here.

Molecular target: MEK5 PB1 domain binding to MEKK2 (MAP3K2) mutant PB1, human
Test: mutant MEKK2-MEK5 PB1 binding inhibitors, SAR follow-up, biochemical, bead multiplex flow cytometry (AID 2151)
Conditions: Bead-based multiplex flow cytometry

Row | EC50 | SMILES
1 | > 30 µM (inactive) | c1csc(Cc2nn3c(-c4ccncc4)nnc3s2)c1
2 | > 30 µM (inactive) | c1coc(-c2nnc3sc(C4CCCCCC4)nn23)c1
3 | > 30 µM (inactive) | CCOc1cccc(-c2nn3c(-c4ccco4)nnc3s2)c1
4 | > 30 µM (inactive) | c1ccc(-c2nnc3sc(C4CCCCCC4)nn23)nc1
5 | > 30 µM (inactive) | COc1cc([N+](=O)[O-])ccc1-c1nn2c(-c3ccccn3)nnc2s1
6 | > 30 µM (inactive) | CCOc1cccc(-c2nn3c(-c4cccs4)nnc3s2)c1
7 | > 30 µM (inactive) | c1c[nH]c(-c2nn3c(-c4ccco4)nnc3s2)c1
8 | > 30 µM (inactive) | COc1cccc(-c2nn3c(-c4ccccn4)nnc3s2)c1
9 | > 30 µM (inactive) | COc1ccc(-c2nn3c(-c4ccccn4)nnc3s2)cc1OC
10 | > 30 µM (inactive) | c1coc(-c2nnc3sc(C4CCCCC4)nn23)c1
11 | > 30 µM (inactive) | c1ccc(-c2nnc3sc(-c4ccc[nH]4)nn23)nc1
12 | > 30 µM (inactive) | COc1cc([N+](=O)[O-])ccc1-c1nn2c(-c3ccco3)nnc2s1
13 | > 30 µM (inactive) | c1ccc(-c2nnc3sc(C4CCCCC4)nn23)nc1
